Series [1] can be described thus: Stability of ozonated ethanol solutions over 72 hours. Format: physicochemical. The conditions noted are these: ethanol (99 vol. %) ozonated 4 hours at 22° C.; 72-hour period. The method, then: The first step was the titration of hydrogen peroxide with ceric sulfate. A small amount of the peracetic acid solution (0.25 mL) was placed in 100 mL of ice-cold 1 N H2SO4 to which was also added three drops of ferroin indicator (Aldrich Chemical Company, Milwaukee, Wis.). The faint pink colored solution was then titrated with 0.1 M Ce(SO4)2 until the colorless endpoint was reached. Because cerium(IV) has a higher oxidation potential than hydrogen peroxide, hydrogen peroxide was oxidized to protons and molecular oxygen according the stoichiometry shown in the following reaction:
5 mL of 0.18 M KI was added to the solution and the mixture was stirred for 30 seconds. The solution was then placed in the dark for 30 minutes. After the 30-minute reaction time, the solution was yellowish brown and the color was proportional to the amount of peracetic acid originally present in the solution. The brown color was produced by oxidation of the colorless iodide anion (I^−) to the brown-colored iodine (I2) molecule by peracetic acid as shown in the following reaction: […]
Experiments were done to determine the stability of ozonated ethanol solutions over a 72-hour period. Ethanol (99 vol. %) was ozonated for 4 hours at 22° C. and the amount of AMP and peracetic acid was measured as a function of time over the next three days. […]

The nature of series [2]: Dissolved ozone concentration by indigo colorimetric method. In kind it is physicochemical. The conditions noted are these: for dissolved ozone concentration: ozonated 5 minutes, 10 wt % ozone gas. The method, then: Solutions containing varying amounts of acetic acid were saturated with ozone. Solutions were prepared containing 50%, 75%, 90%, 95%, and 99% by volume acetic acid in water. In separate experiments, 100 mL of the above solutions were placed in 250 mL round bottom flasks fitted with a ground glass top. The top contained two fittings that permitted gas flow in through one fitting and gas flow out through the other. A mixture of ozone and oxygen was delivered from Lynntech's Model 124 Electrochemical Ozone generator to the solution through a stainless steel gas diffusing stone. The flow rate was approximately 1,000 mL of gas per minute, and the concentration of ozone was 10% by weight. The solutions were ozonated for 5 minutes and the concentration of dissolved ozone was determined by the indigo calorimetric method. An additional solution of 100 mL of deionized water and a solution of 100 mL of glacial acetic acid were also ozonated.
The concentration of dissolved ozone was determined by the indigo colorimetric method. An indigo stock solution was prepared by adding 500 mL of deionized water and 1 mL of phosphoric acid to a 1 L volumetric flask. 770 mg of potassium indigo trisulfonate was added to the flask, and stirring was continued until the dye was completely dissolved. The flask was filled to the mark with deionized water. A working indigo solution was prepared by adding 20 mL of indigo stock solution, 10 g of sodium dihydrogen phosphate (NaH2PO4), and 7 mL of concentrated phosphoric acid to a 1 L volumetric flask. The flask was filled to the mark with deionized water. The concentration of ozone in solution was determined by adding an aliquot of ozonated solution (typically 30 μL) to 3 mL of working indigo solution in a 1 cm path-length quartz cuvette. The cuvette was capped with a piece of Parafilm® (American National Can Company, Chicago, Ill.) and inverted a few times to mix the solutions. As a blank, the same volume the equivalent non-ozonated solution was added to 3 mL of working indigo solution in a matched cuvette and mixed. […] The absorbance at 600 nm was measured to provide the difference in absorbance between the blank and the sample. […]
where ΔA is the difference in absorbance between the sample and the blank, b is the path-length of the cuvette, Vw is the volume of working indigo solution, Vs is the volume of sample, and f is 0.42. f is based on a sensitivity factor of 20,000/cm for the change in absorbance at 600 nm per mole of ozone added per liter. […]
200 mL of 81% acetic acid by volume (in DI water) water was ozonated in a glass flask. […] At the same time a liquid sample was withdrawn from the beaker and its ozone concentration measured by the method described above. […]

For series [3] the following is noted: neutral aqueous solution, cited from earlier work.
Series [4] deals with Enterococcus faecium (Gram positive). The experiment in a line: Biocidal test on dried cells on glass slides. Format: cell-based. The method, then:
(§1) 0.1 milliliters of a 3×10^6 cfu/mL solution of bacteria cells harvested from a mid-log phase culture were placed on a glass microscope slide. The solution was allowed to dry for 2 hours leaving only cells on the surface. The slides were treated by immersing them in 10 mL of either: (i) sterile water; (ii) 10% ethanol in water; (iii) 10% ozonated ethanol in water; or (iv) 1% ozonated ethanol in water for either 5 or 20 seconds. Immediately after treatment the slides were removed from solution and immersed in 3-mL of a sterile saline solution and ultrasonicated for 10 minutes to dislodge the cells from the slide. The recovered cells were diluted, plated, and incubated at 37° C. overnight and colonies were counted to determine the number of survivors per slide. Initial recovery was determined using the above procedure but the treatment step was omitted.

Series [5] concerns Klebsiella pneumoniae (Gram negative). As to the kind of experiment: Biocidal test on dried cells on glass slides. Format: cell-based. As for the experimental part:
as §1

Another series relates to Bacillus subtilis spores. The experiment in a line: Bacillus subtilis spore carrier disinfection test. Format: cell-based. The conditions noted are these: 30 minutes contact.
For series [6] the following is noted: at 20° C.; Handbook of Chemistry and Physics; cited from earlier work.
Setting [7] is: 5-second contact time, Log10 Start 4.9, Table 4.
Where [8] appears, read: 20-second contact time, Log10 Start 5.4, Table 3.
Setting [9] is: 20-second contact time, Log10 Start 7.4, Table 7.
[10] abbreviates: 5-second contact time, Log10 Start 5.3, Table 6.
The mark [11] stands for this setting: 20-second contact time, Log10 Start 4.8, Table 5.
Setting [12] is: 20-second contact time, Log10 Start 6.3, Table 8.

Where “and” joins values, the source holds several entries; their conditions need not be identical. Equal values may be shown once. Read-outs that look alike come from different tables or passages of the source.

The text below walks through data of patent publication US20030070691A1, “Biocide formation via ozonation” (priority 2000, published 2003).

Procedure for Bacillus subtilis spores: Preparation of carriers. In each of the following examples, the disinfection solutions were evaluated using spores of Bacillus subtilis. Spores were placed onto glass carriers formed by cutting microscope slides in half lengthways. Slides were placed in a culture tube that was capped and sterilized prior to inoculation with spores. A total of 0.1 mL of a spore suspension containing 10% bovine serum albumin by weight was placed onto a small area near one end of the slide. Approximately 20 μL (microliters) of spore suspension was added at a time for 5 times, allowing each 20μL amount to dry between additions. Heat drying was performed by briefly holding the slide over a flame. The heat-fixed culture was stored in the refrigerator until needed for up to, but no longer than, 5 days.
Disinfection of carriers. In the following examples, three vials were prepared, each containing 200 mL of the disinfectant composition to be evaluated. One spore carrier was placed into each vial. The spore carriers were held in the disinfection solutions for 30 minutes. After contacting was complete, the carriers were removed from the disinfection solutions using forceps and rinsed with sterile saline.
Spore recovery and enumeration. After rinsing, each of the slides was placed in a sterile tube containing 2 mL of saline. […] Invert plates were incubated at 37° C. and counted after 24 hours. […]

Regarding `CC(=O)OO` [peracetic acid], the “concentration in solution over time” value in series [1] is “constant”.
`O=[O+][O-]` [ozone]: the “initial ozone concentration at the time the spore carriers were immersed” value in series [2] (in 81% acetic acid ozonated 10 minutes) was 125 ppm and 175 ppm. The results for the dissolved ozone concentration result in series [2] (in DI water) and in series [2] (in pure acetic acid) were “about 30 ppm” and “greater than 400 ppm”, respectively. In series [2] (in ozonated DI water, Example 11), this compound displayed an initial ozone concentration of at most 31 ppm. Besides, the “Ozone Concentration (solubility)” value in series [3] (0° C.) was 35 (ppm); in series [3] (20° C.) it was 21 ppm; in series [3] (40° C.) it was 4 ppm; in series [3] (60° C.) it was 0 ppm.
In the case of acetaldehyde monoperacetate [AMP], the “concentration in solution over time” value in series [1] is “decreases considerably”.
Consider `CCO` [10 vol. % Ethanol in Water (control), Ethanol], for which the “Log10 Recovered” value in series [4] (setting [7]) was 4.3 Log10; in series [4] (setting [8]) it was 5.2 Log10; in series [4] (setting [9]) it was 4.5 Log10; in series [5] (setting [10]), 3.3 Log10; in series [5] (setting [11]), 4.3 Log10; in series [5] (setting [12]), 6.4 Log10. Besides, the “Log10 Reduction” value in series [4] (setting [7]) is given as 0.6 Log10; in series [4] (setting [8]), 0.2 Log10; in series [4] (setting [9]), 2.9 Log10; in series [5] (setting [10]), 2.0 Log10; in series [5] (setting [11]), 0.5 Log10; in series [5] (setting [12]), −0.1 Log10.
As for `CC(=O)O` [non-ozonated 81% acetic acid, acetic acid], the “log reduction in viable spores, best achieved” value with Bacillus subtilis spores (Example 11) is at most 2.87 log. Besides, the “sporicidal / disinfection activity in words” value in the series on Bacillus subtilis spores (glass carriers, spores in 10% bovine serum albumin) is “relatively ineffective”.
Regarding `CCCC(=O)O` [butyric acid], the published ionization constant in series [6] was 4.81.
